Test results from patent publication US20170334899A1, “AMINO-SUBSTITUTED ISOTHIAZOLES” (Bayer Pharma Aktiengesellschaft, priority 2014, published 2017).

Experiments:
Assay type in all cases: cell-based
B16F10 = test: Proliferation assay (crystal violet), B16F10; conditions: Mus musculus, B16-F10, 96 h; B16F10 cells; 4 days incubation; crystal violet staining; read-out: IC50 inhibition of proliferation, B16F10
Method in brief: (§1)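 Cells plated at 1000-5000/well with 10% FCS, treated after 24 h with compound at 0.001-10 μM (0.5% DMSO) for 4 days. Glutaraldehyde-fixed, crystal violet-stained, A595 normalised to zero-point plate (0%) and untreated cells (100%); IC50 by 4-parameter fit.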

HeLa-MaTu-ADR = test: Proliferation assay (crystal violet), HeLa-MaTu-ADR; conditions: 96 h; HeLa-MaTu-ADR cells; 4 days incubation; crystal violet staining; read-out: IC50 inhibition of proliferation, HeLa-MaTu-ADR
Method in brief: as §1

DU145 = test: Proliferation assay (crystal violet), DU145; conditions: Homo sapiens, DU-145, 96 h; DU145 cells; 4 days incubation; crystal violet staining; read-out: IC50 inhibition of proliferation, DU145
Method in brief: as §1

NCI-H460 = test: Proliferation assay (crystal violet), NCI-H460; conditions: Homo sapiens, 96 h; NCI-H460 cells; 4 days incubation; crystal violet staining; read-out: IC50 inhibition of proliferation, NCI-H460
Method in brief: as §1

[1] = system: human cervical tumor cell line HeLa (ATCC CCL-2); test: SAC-Formation - Paclitaxel-Induced Assay; conditions: Homo sapiens, HeLa, 24 h, HeLa cells, paclitaxel 0.05 μM, test range 0.005 μM-20 μM, read-out: IC50 [mol/l] SAC-Formation - Paclitaxel-Induced Assay
Method in brief: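 HeLa cells incubated overnight at 37° C, then given paclitaxel (0.05 μM final) plus test compound (0.005–20 μM, 0.5% DMSO) together for 24 h at 37° C. Fixed cells stained for phospho-histone H3 Ser10 (mitotic cells) and Hoechst 33342 (cell count); imaging-derived mitotic index fitted by four-parameter Hill equation.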

Caco-2 = test: Proliferation assay (crystal violet), Caco-2; conditions: Homo sapiens, 96 h; Caco-2 cells; 4 days incubation; crystal violet staining; read-out: IC50 inhibition of proliferation, Caco2
Method in brief: as §1

SMILES	IC50 (B16F10)	IC50 (HeLa-MaTu-ADR)	IC50 (DU145)	IC50 (NCI-H460)	IC50 [1]	IC50 (Caco-2)
Cc1nsc(Nc2ccc(C#N)cn2)c1C(=O)Nc1ccc(OC2CCN(CC(F)(F)F)CC2)nc1 [Example 30, 5-[(5-Cyanopyridin-2-yl)amino]-3-methyl-N-(6-{[1-(2,2,2-trifluoroethyl)piperidin-4-yl]oxy}pyridin-3-yl)-1,2-thiazole-4-carboxamide]	390 nM	230 nM	640 nM	310 nM	420 nM	350 nM
Cc1nsc(Nc2cnc3ccccc3n2)c1C(=O)Nc1ccc(OC2CCCN(C(=O)OC(C)(C)C)C2)nc1 (centres unmarked) [Example 31, tert-Butyl 3-{[5-({[3-methyl-5-(quinoxalin-2-ylamino)-1,2-thiazol-4-yl]carbonyl}-amino)pyridin-2-yl]oxy}piperidine-1-carboxylate]	950 nM	880 nM	3000 nM	730 nM	610 nM	1100 nM
Cc1nsc(Nc2cnc(C(F)(F)F)cn2)c1C(=O)Nc1ccc(F)c(OC[C@H]2CCN(CC(F)F)C2)c1 [Example 397, N-(3-{[(3S)-1-(2,2-difluoroethyl)pyrrolidin-3-yl]methoxy}-4-fluorophenyl)-3-methyl-5-{[5-(trifluoromethyl)pyrazin-2-yl]amino}-1,2-thiazole-4-carboxamide]	–	–	–	–	82 nM	–
Cc1nsc(Nc2cnc(C(F)(F)F)cn2)c1C(=O)Nc1ccc(F)c(OC[C@H]2CCN(CC(F)(F)F)C2)c1 [Example 398, N-(4-fluoro-3-{[(3S)-1-(2,2,2-trifluoroethyl)pyrrolidin-3-yl]methoxy}phenyl)-3-methyl-5-{[5-(trifluoromethyl)pyrazin-2-yl]amino}-1,2-thiazole-4-carboxamide]	–	–	–	–	56 nM	–
